Test results as given in ChEMBL document CHEMBL4000254, “Sodium Channel Blockers” (ACS Med Chem Lett, 2017).

Biological target: Sodium channel protein type 9 subunit alpha (Homo sapiens, UniProt Q15858)
Experiment: Inhibition of human Nav1.7 expressed in HEK293 cells assessed as inhibition of peak current after 50 secs by automated patch clamp assay
Assay type: cell-based

Chain of Sodium channel protein type 9 subunit alpha (Q15858 whole entry): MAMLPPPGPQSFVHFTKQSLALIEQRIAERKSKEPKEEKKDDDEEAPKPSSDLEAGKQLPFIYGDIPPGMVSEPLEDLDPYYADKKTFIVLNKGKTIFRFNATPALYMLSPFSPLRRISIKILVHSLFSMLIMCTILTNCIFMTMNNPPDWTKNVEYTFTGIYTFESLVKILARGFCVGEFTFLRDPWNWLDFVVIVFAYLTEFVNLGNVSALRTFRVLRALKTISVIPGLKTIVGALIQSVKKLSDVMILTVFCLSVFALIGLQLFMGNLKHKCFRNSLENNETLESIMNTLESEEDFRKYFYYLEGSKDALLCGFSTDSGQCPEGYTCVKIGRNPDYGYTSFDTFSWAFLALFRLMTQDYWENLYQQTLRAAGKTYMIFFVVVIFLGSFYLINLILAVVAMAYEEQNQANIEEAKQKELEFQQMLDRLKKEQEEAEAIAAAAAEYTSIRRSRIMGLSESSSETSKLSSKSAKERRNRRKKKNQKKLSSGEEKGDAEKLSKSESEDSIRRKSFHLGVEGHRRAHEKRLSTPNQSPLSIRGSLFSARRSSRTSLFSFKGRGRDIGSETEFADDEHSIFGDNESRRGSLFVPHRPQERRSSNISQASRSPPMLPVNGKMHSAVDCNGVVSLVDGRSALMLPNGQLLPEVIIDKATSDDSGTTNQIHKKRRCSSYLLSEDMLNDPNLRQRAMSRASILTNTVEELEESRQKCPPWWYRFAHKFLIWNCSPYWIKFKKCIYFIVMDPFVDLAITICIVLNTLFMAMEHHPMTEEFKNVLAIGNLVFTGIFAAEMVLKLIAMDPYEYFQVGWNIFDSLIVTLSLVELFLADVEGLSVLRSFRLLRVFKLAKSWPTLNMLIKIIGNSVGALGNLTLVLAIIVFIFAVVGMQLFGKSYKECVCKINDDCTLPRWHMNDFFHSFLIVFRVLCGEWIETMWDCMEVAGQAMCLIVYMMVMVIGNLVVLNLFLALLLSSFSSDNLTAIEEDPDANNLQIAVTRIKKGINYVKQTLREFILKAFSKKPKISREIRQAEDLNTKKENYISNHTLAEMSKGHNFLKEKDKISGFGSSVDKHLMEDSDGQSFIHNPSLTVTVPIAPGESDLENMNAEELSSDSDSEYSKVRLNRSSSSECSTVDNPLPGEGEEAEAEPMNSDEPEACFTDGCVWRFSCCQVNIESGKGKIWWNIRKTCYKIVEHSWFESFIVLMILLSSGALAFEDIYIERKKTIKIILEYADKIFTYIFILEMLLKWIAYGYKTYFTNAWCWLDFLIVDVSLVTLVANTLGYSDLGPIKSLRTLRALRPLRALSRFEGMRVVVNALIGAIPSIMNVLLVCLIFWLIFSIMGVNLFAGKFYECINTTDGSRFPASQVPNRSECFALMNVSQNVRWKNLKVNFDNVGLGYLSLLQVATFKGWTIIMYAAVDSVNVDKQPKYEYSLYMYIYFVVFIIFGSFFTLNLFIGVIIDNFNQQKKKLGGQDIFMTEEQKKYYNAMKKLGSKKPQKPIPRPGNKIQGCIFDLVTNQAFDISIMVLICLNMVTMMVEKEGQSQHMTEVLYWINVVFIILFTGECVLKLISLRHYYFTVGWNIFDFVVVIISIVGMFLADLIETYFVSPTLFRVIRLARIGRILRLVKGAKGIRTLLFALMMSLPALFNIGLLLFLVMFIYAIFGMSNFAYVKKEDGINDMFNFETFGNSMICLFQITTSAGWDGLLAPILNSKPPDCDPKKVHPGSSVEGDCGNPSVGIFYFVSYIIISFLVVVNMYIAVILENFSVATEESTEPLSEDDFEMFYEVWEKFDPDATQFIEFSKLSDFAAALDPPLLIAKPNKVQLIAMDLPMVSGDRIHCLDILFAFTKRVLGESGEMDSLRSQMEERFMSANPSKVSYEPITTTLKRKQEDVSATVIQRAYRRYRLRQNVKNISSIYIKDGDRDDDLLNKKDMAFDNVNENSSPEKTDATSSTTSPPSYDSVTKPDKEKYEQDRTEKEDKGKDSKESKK

SMILES | IC50 [nM]
CS(=O)(=O)NC(=O)c1cc(Cl)c(-n2nc(Cl)c3cc(-c4cccc(Cl)c4F)ccc32)cc1F | 70
CS(=O)(=O)NC(=O)c1cc(Cl)c(-n2nc(F)c3cc(-c4cccc(Cl)c4)ccc32)cc1F | 40
CS(=O)(=O)NC(=O)c1cc(Cl)c(-n2nc(Cl)c3cc(-c4cc(F)ccc4F)ccc32)cc1F | 90
CS(=O)(=O)NC(=O)c1cc(Cl)c(-n2ncc3cc(-c4ccc(Cl)cc4F)ccc32)cc1F | 70
Cc1ccccc1-c1ccc2c(c1)c(F)nn2-c1cc(F)c(C(=O)NS(C)(=O)=O)cc1Cl | 60
COc1cccc(-c2ccc3c(c2)c(F)nn3-c2cc(F)c(C(=O)NS(C)(=O)=O)cc2Cl)c1 | 80
Cc1cccc(-c2ccc3c(c2)c(Cl)nn3-c2cc(F)c(C(=O)NS(C)(=O)=O)cc2Cl)c1 | 39
CS(=O)(=O)NC(=O)c1cc(Cl)c(-n2nc(Cl)c3cc(OCc4ccc5ccccc5c4)ccc32)cc1F | 7.6
CS(=O)(=O)NC(=O)c1cc(Cl)c(-n2nc(Cl)c3cc(-c4ccc(Cl)c(F)c4)ccc32)cc1F | 80
CS(=O)(=O)NC(=O)c1cc(Cl)c(-n2nc(Cl)c3cc(-c4cc(F)c(F)c(F)c4)ccc32)cc1F | 20
CS(=O)(=O)NC(=O)c1cc(Cl)c(-n2ncc3cc(-c4cccc(Cl)c4)ccc32)cc1F | 70

More lines, now with the values ahead:

IC50 [nM] | SMILES
50 | CS(=O)(=O)NC(=O)c1cc(Cl)c(-n2cc(F)c3cc(-c4cccc(Cl)c4)cnc32)cc1F
50 | CS(=O)(=O)NC(=O)c1cc(Cl)c(-n2cc(F)c3cc(-c4ccc(C(F)(F)F)cc4)cnc32)cc1F
80 | CS(=O)(=O)NC(=O)c1cc(Cl)c(-n2cc(Cl)c3cc(-c4ccc(F)cc4F)cnc32)cc1F
50 | CS(=O)(=O)NC(=O)c1cc(Cl)c(-n2cc(Cl)c3cc(-c4ccc(C(F)(F)F)cc4)cnc32)cc1F
40 | CS(=O)(=O)NC(=O)c1cc(Cl)c(-n2cc(F)c3cc(-c4cccc(Cl)c4F)cnc32)cc1F
90 | Cc1cc(F)ccc1-c1cnc2c(c1)c(Cl)cn2-c1cc(F)c(C(=O)NS(C)(=O)=O)cc1Cl
90 | CS(=O)(=O)NC(=O)c1cc(Cl)c(-n2nc(F)c3cc(-c4cccc(F)c4)ccc32)cc1F
40 | CS(=O)(=O)NC(=O)c1cc(Cl)c(-n2cc(Cl)c3cc(-c4ccc(F)cc4Cl)cnc32)cc1F
80 | Cc1cccc(-c2ccc3c(c2)c(F)nn3-c2cc(F)c(C(=O)NS(C)(=O)=O)cc2Cl)c1
80 | CS(=O)(=O)NC(=O)c1cc(Cl)c(-n2nc(Cl)c3cc(-c4ccc(OC(F)(F)F)cc4)ccc32)cc1F
